Experimental findings from patent publication EP1020531A2, “Use of spore adhesion assays in fungicide screening” (priority 1999, dated 2000) are described below.

Converted amounts (≈) assume the structure as drawn. Some results are limits rather than exact numbers.

One experiment relates to Magnaporthe grisea. The class given is cell-based.
Experiment [1] has as its system Colletotrichum lagenarium spores. Description: Spore germination assay. The class given is cell-based. To be noted: SDB with Tween 20 (40 ppm), 8 h.
The test system of experiment [2] is Botrytis cinerea spores. Put plainly: Spore adhesion to borosilicate glass vials. The class given is cell-based.
Another experiment has as its system Botrytis. Put plainly: Mycelial growth inhibition, poison agar assay. To be noted: Botrytis, 72 h, read-out: Mycelial Growth Inhn. EC50 (ppm).
Experiment [3] relates to Botrytis cinerea spores. Put plainly: Spore adhesion to Plexiglas chamber slides. The format is cell-based. The procedure: Assays were conducted in custom-made chamber slides made of Plexiglas®. Chamber slide wells received 5 µl of DMSO (controls) or kresoxim-methyl dissolved in DMSO, followed by 500 µl of SDB. Aqueous spore suspension (500 µl) at 200,000 spores/ml was added, mixed gently and the vials or slides incubated at 25°C for the desired period. The number of nonadhered spores was determined by transferring the fluid to a counting vial, washing the chamber slide well once by adding 1 ml of counting fluid to the well, shaking gently, and then adding the wash to the counting vial. Counting fluid (14 ml) was added to the vial, and the spores counted using a Coulter Counter®. The number of adhered spores was determined by subtracting the number of nonadhered spores from the total number of spores and was expressed as a percentage (% Adhesion).

For experiment [4], the system named is Colletotrichum lagenarium. Description: Mycelial growth inhibition, poison agar assay. The class given is cell-based.
The subject of experiment [5] is Colletotrichum lagenarium spores. The format is cell-based. To be noted: SDB with Tween 20 (40 ppm), 8 h.
Experiment [6] deals with Aspergillus nidulans spores. Put plainly: Spore adhesion assay in 96-well polystyrene microtiter plates. The class given is cell-based. To be noted: statement in words. The procedure: (§1) For adhesion assays in microtiter plates, stock solutions of test compounds were prepared in DMSO then diluted in SDB such that the DMSO concentration after dilution was ≤2%. Two-fold serial dilutions of these test compound solutions were made in SDB (100 µl) in 96-well flat-bottomed microtiter plates. Spore suspension (100 µl at 2X10^5 spores/ml) was added to the wells, and the plates were incubated at 25°C for 5.5 hours. The medium containing unbound spores was removed by inverting and flicking the microtiter plate to remove as much liquid as possible.
Various fungicides were evaluated for their abilities to inhibit spore adhesion in 96-well flat-bottomed polystyrene microtiter plates. Adhesion assays were conducted as outlined in Example 2 for Botrytis except that the spore inoculum was prepared at 2X10^6 spores/ml, and plates were incubated at 37°C for 8 h.

The test system of experiment [7] is Botrytis cinerea spores. Description: Spore adhesion assay in 96-well polystyrene microtiter plates (sulforhodamine B). To be noted: Botrytis cinerea, 25°C, 5.5 hours, read-out: Inhn. of Spore Adhesion (EC50, ppm) Microtiter plates. The class given is cell-based. The procedure:
(§2) Botrytis cinerea was grown at room temperature under fluorescent lights on potato dextrose agar (PDA), and subcultured every 14 days. To prepare spore suspensions, 20 ml sterile milliQ™ water was added to plates (10-14 days old) and the surface scraped gently with a sterile loop. The fluid was filtered through glass wool to remove mycelial fragments, then the spore density was adjusted to the desired concentration.
as §1

The subject of experiment [8] is Colletotrichum lagenarium spores. Description: Spore adhesion assay in 96-well polystyrene microtiter plates. The class given is cell-based. To be noted: SDB with Tween 20 (40 ppm), 8 h. The procedure:
as §1
Colletotrichum lagenarium was grown at 25°C in the dark on potato dextrose agar and subcultured every 7-14 days. To prepare spore suspensions, 15 ml sterile water was added to plates (7-10 days old) and the plates agitated gently on a gyrotary shaker for 10 min to release spores. The resulting spore suspension was filtered through glass wool and adjusted to the desired concentration. Spore adhesion assays and germination assays were conducted as outlined in Example 1 for Botrytis except that the SDB medium contained Tween™ 20 (40 ppm), and the spore inoculum was prepared at 5X10^5 spores/ml. Data in the table below show a time-dependent adhesion of spores to the slide which closely parallels the time-course for spore germination.
Various fungicides were evaluated for their abilities to inhibit spore adhesion in 96-well flat-bottomed polystyrene microtiter plates and Permanox® chamber slides, and for their effects on spore germination and mycelial growth. Assays were conducted as outlined in Example 2 for Botrytis except that the SDB medium contained Tween™ 20 (40 ppm), the spore inoculum was prepared at 5X10^5 spores/ml, and 8 h incubation was used for the adhesion and germination assays. For each compound tested, EC50 values for inhibition of adhesion to microtiter plates and chamber slides were similar. Spore adhesion was sensitive to all compounds which inhibited germination at low concentrations (<0.2 ppm).

For experiment [9], the system named is Botrytis cinerea spores. Description: Spore adhesion to polyethylene vials. The class given is cell-based.
Experiment [10] concerns Botrytis cinerea spores. Put plainly: microbe, parasite or virus in culture. The class given is cell-based. To be noted: Botrytis cinerea, 5.5 h, read-out: Inhn. of Spore Adhesion (EC50, ppm) Chamber Slides.
In another experiment the test system is Puccinia recondita. Description: Germination-associated spore adhesion assay in microtiter plates (sulforhodamine B). The class given is cell-based.
In experiment [11] the test system is Botrytis cinerea spores. Put plainly: Spore adhesion assay in polystyrene counting vials (Coulter Counter). To be noted: Botrytis cinerea, 25°C, 5.5 h, read-out: Inhn. of Spore Adhesion (EC50, ppm) Counting vials. The format is cell-based. As to the method: as §2
Various fungicides were evaluated for their abilities to inhibit germination-associated spore adhesion to polystyrene counting vials, polymethylpentene (Permanox®) chamber slides and 96-well flat-bottomed polystyrene microtiter plates, and for their effects on spore germination and mycelial growth (table below). Adhesion assays in chamber slides and germination assays were performed as in Example 1 with incubation at 25°C for 5.5 h. Adhesion assays in counting vials were conducted in 20 ml capacity polystyrene counting vials (VWR cat. no. 14310-640). Counting vials received 5 µl of DMSO (controls) or test compound dissolved in DMSO, followed by 500 µl of SDB. Aqueous spore suspension (500 µl) at 200,000 spores/ml was added, mixed gently and the vials or slides incubated at 25°C for 5.5 h. To determine the numbers of unbound spores 15 ml of counting fluid was added, vials were capped and inverted gently 5 times, then counted using a Coulter Counter®.

The subject of experiment [12] is Botrytis cinerea spores. Put plainly: Spore germination assay (microscopic examination). The format is cell-based. To be noted: Botrytis cinerea; 25°C, 5.5 h; read-out: Inhn. of Germination EC50 (ppm).
Experiment [13] has as its system Botrytis cinerea spores. Put plainly: Spore adhesion to polypropylene vials. To be noted: 7 hours. The class given is cell-based.

A word on the EC50: it is the concentration at which the effect is half-maximal. As to `CO/N=C(/C(=O)OC)c1ccccc1COc1ccccc1C` [Kresoxim-methyl], the “EC50 (ppm)” value in the experiment with Magnaporthe grisea (inhibition of adhesion, YEG, 25°C, 6 hours) turned out to be 0.067 ppm; in the experiment on Puccinia recondita (inhibition of adhesion, 0.05% Tween 20, 19°C, 4 hours), 0.016 ppm. Further, the “inhibition of germination-associated adhesion” value is listed as “potent inhibitors of germination-associated adhesion” in the experiment with Magnaporthe grisea (statement in words) and “inhibited germination-associated adhesion” in the experiment with Puccinia recondita (statement in words). Moreover, the “Germination EC50 (ppm)” value in experiment [1] came out at 0.015 ppm. Also, the “%Adhesion with kresoxim-methyl, 10 ppm” value in the experiment with Botrytis cinerea spores [2] (6 hours) turned out to be 23.4%; in the experiment with Botrytis cinerea spores [2] (7 hours), 29.6%; in the experiment on Botrytis cinerea spores [3] (7 hours) it was 17.4%; in the experiment on Botrytis cinerea spores [3] (8 hours), 26.2%; in the experiment with Botrytis cinerea spores [9] (6 hours), 12.7%; with Botrytis cinerea spores [9] (7 hours) it was 15.1%. The “%Adhesion with kresoxim-methyl, 10 ppm” value in the experiment on Botrytis cinerea spores [13] was found to be 18.9%. Besides, the EC50 was determined as 0.28 µg/mL (≈ 0.894 µM) in the experiment with Botrytis; 0.011 µg/mL (≈ 0.0351 µM) in the experiment on Botrytis cinerea spores [7]; 0.035 µg/mL (≈ 0.112 µM) in the experiment with Botrytis cinerea spores [10]; 0.014 µg/mL (≈ 0.0447 µM) in the experiment with Botrytis cinerea spores [11]; 0.02 µg/mL (≈ 0.0638 µM) in the experiment on Botrytis cinerea spores [12]. In addition, the “Mycelial Growth Inhn. EC50 (ppm)” value in experiment [4] is above 10 ppm. Besides, the “Inhn. of Adhesion (EC50, ppm) Chamber slides” value in experiment [5] is 0.054 ppm. In addition, in [6], the “inhibition of spore adhesion” value is “highly potent inhibitors of spore adhesion”. For the same compound, the “Inhn. of Adhesion (EC50, ppm) Microtiter plates” value in experiment [8] turned out to be 0.026 ppm.
